Assay results taken from US20120082623A1, “SHH Regulation and Methods Thereof” (priority 2009, published 2012).
Entries after “also recorded” stand apart in the source; their conditions may differ.

Assays:
[1] = tested on: medial forebrain bundle (mFB); test: Unilateral 6-OHDA injection into the medial forebrain bundle; turning bias and gene expression; format: in vivo, mouse; conditions: for Shh transcription in the vMB: wt and heterozygous GDNF mutant mice
[2] = tested on: SVZ proliferation; design: reduction in SVZ proliferation overall (PCNA) / reduction in proliferation in the C cell compartment (PCNA): concentration or dose not given beside the values; conditions: cited from earlier work; for reduction in SVZ proliferation overall (PCNA) / reduction in proliferation in the C cell compartment (PCNA): systemic MPTP or unilateral 6-OHDA into the nigro-striatal pathway
[3] = tested on: Shh-nLZ C/C; Dat-Cre mutant mice; test: Gait dynamics on treadmill (DigiGait) after acute L-Dopa or THP in mice with Shh ablation from DA neurons; format: in vivo, mouse; conditions: for increased absolute paw angle / reduced brake time / Brake-Stride ratio: 12 month old mutant animals; for reduced brake time / Brake-Stride ratio: THP 3 mg/kg IP, 30 minutes prior
Text: Given the involvement of the basal ganglia in the production of gait patterns, gait dynamics by ventral plane videography of mice walking on a translucent treadmill was investigated (Digigait system, Mouse specifics, Inc.), from which comparative temporal, spatial and force indices of gait were derived (Hampton et al., Physiol Behav. 2004 Sep. 15; 82(2-3):381-9; Amende et al., J Neuroeng Rehabil. 2005 Jul. 25; 2:20) of experimental and control animals from 3 to 16 months.
Either drug or vehicle control 30 minutes prior to the analysis of gait dynamics was injected in 12 month old animals. […] (FIG. 39D). […] (FIG. 39B). […] (FIG. 40C).
Gait dynamics by ventral plane videography of mice walking on a translucent treadmill (Digigait system, Mouse specifics, Inc.) were investigated, from which comparative temporal, spatial and force indices of gait were derived (Hampton et al., 2010) of Shh-nLZ^C/C; Dat-Cre—and control animals from 3 to 16 months of age (Table 1). Since altered posture can confound comparative gait analysis based on absolute measures, further analysis of locomotion on the tread mill was focused on gait length variability and relative indices of gait dynamics (relative time allotted to Swing, Brake, Propel and Stance phases) and foot angle. In Shh-nLZ^C/C; Dat-Cre mutants, gait length coefficient of variability was 30% increased at 10 months of age (FIG. 48C).
Many of the locomotion disturbances observed in Shh-nLZ^C/C; Dat-Cre were reminiscent of the functional hall marks of Parkinson's spectrum diseases which are characterized by a general impoverishment of locomotion, reduced fluidity of movement, difficulties in initiating and terminating locomotion, and increased stride length variability (Hausdorff et. al, 1998). Whether dopamine substitution by L-Dopa and the muscarinic antagonist trihexiphenidyl (THP), drugs of proven efficacy in the management of symptoms of PD related diseases, will modify acutely the locomotion deficits of Shh-nLZ^C/C; Dat-Cre mice, was tested.
Spontaneous motor activity was measured in an open field arena using automatic tracking at 6 Hz by an EthoVision 3.1 system (Noldus Information Technology, Leesburg, Va.). Derivation of acceleration and deceleration profiles and indices for turning bias and locomotion complexity is described below. Analysis of gait parameters by forced locomotion was performed by ventral plane videography on a translucent tread mill as described (Digigait, Inc.; Hampton et al., 2010).

[4] = tested on: Shh-nLZ C/C; Dat-Cre mutant mice; test: Kinematic analysis of spontaneous locomotion (open field) after L-Dopa or THP; format: in vivo, mouse; conditions: phase III mutant animals
Procedure: In particular, Bradykinesia is observed in PD. Bradykinesia is the slowed ability to start and continue movements, and impaired ability to adjust the body's position. […] There were no significant differences in the maximal speed that control and mutant mice can travel at (FIG. 40E). The relative time each animals spends at different speeds during acceleration and deceleration in individual locomotion bouts was analyzed. The numbers of “surges”, that are the reversals from acceleration to deceleration and back within a single locomotion bout, were quantitated. The “speed bin” analysis and quantitation of surges type is schematized in FIG. 40F.
Mesostriatal computations take part in the sequencing of locomotor activity and in the termination of ongoing actions (Jin and Costa, 2010; Ding et al., 2010). These processes can be partially assessed by analysis of the kinematic complexity of individual bouts of locomotion in freely ambulating mice (Benjamini et al. 2011; see also Other Results and Discussion). Quantifying the number of alternations from acceleration to deceleration and back in individual bouts of locomotion of similar duration and overall amplitude (FIG. 63G; see also Other Results and Discussion), a 100% increase in locomotive complexity of Shh-nLZ^C/C; Dat-Cre mutants in phase II but a 40% decrease in complexity in phase III compared to control littermates was observed (FIG. 48F). How much time animals spend traveling at different velocities during individual bouts of locomotion of similar length and amplitude was quantified next (see Other Results and Discussion). In phase II mice spend most time locomoting at initial and at top speeds with no discernable differences between Shh-nLZ; Dat-Cre mutants and control littermates (FIG. 64A-B). In phase III, however, Shh-nLZ^C/C; Dat-Cre animals spend 50% more time at low velocities and 80% less time at submaximal speed levels before reaching maximal velocity (FIG. 48K and FIG. 64C). Shh-nLZ^C/C; Dat-Cre animals also spend more time at sub-maximal speed levels after the animal reached peak velocities in a given bout compared to controls (FIG. 64D). […]
Spontaneous motor activity was measured in an open field arena using automatic tracking at 6 Hz by an EthoVision 3.1 system (Noldus Information Technology, Leesburg, Va.). […]
The open field arena was a polycarbonate cage 30×60×25 cm placed in a sound proof chamber. Locomotion of each mouse was recorded and tracked automatically for 10 minutes after habituation. Motor activity was measured as total distance traveled and turning bias was calculated as the net turning angle divided by distance (degrees/cm). Turning bias was calculated by subtracting the sum of ipsi- to contra-lateral movements and is independent of displacement (Spink et al., 2001).

[5] = tested on: Th expressing dopaminergic neurons in the substantia nigra pars compacta; test: MPTP paradigm with and without cyclopamine; stereological quantification of Th+ cells
[6] = tested on: MPTP-lesioned mice; conditions: oral administration; cited from earlier work
[7] = tested on: ALS patients; conditions: cited from earlier work
[8] = target: T1, GDNF family receptor (GFR)α1 (Mus musculus, UniProt P97785); conditions: Neuro-2A cells; cited from earlier work
T1 construct: host or cells: Neuro-2A cells
T1 sequence (P97785 25-430): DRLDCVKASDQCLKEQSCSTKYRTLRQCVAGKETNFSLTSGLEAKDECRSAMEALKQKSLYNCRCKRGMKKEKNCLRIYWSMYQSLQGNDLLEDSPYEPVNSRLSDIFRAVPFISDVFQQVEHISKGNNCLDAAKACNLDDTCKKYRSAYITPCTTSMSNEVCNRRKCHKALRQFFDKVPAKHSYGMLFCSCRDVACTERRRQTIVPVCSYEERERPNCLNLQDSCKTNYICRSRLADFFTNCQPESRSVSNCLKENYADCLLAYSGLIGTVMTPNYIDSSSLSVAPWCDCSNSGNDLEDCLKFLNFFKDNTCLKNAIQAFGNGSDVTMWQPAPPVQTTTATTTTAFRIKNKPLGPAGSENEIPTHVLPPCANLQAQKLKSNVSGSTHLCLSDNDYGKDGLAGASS

[9] = tested on: Shh pathway; test: Cyclopamine injection into soleus/calf muscle; GDNF and CNTF expression by qtPCR; format: in vivo, mouse; conditions: for dose dependence of neurotrophic factor up-regulation: soleus of endstage G93A SOD animals, 0.5, 1, or 2 μg
[10] = unilateral striatal deafferentation (Winner et al. 2006)
[11] = single systemic dose 1 hour prior to brain harvest
[12] = unilateral injection into the soleus of 125 day old G93A SOD transgenic animals

NCCc1cc(O)c(O)cc1O [6-OHDA, 6-hydroxy-dopamine]
GDNF and ChAT transcription in the striatum [1]: ipsi-lateral up-regulation of GDNF and ChAT transcription in the striatum | expression of Th in the vMB [1]: not affected | turning bias [1]: contra lateral turning bias | Shh transcription in the vMB [1]: up-regulation of Shh transcription in the ipsilateral ventral midbrain | Shh transcription in the vMB ([1]; listed as 6 OH-DA): ipsi-lateral up-regulation of Shh transcription in the vMB | GDNF transcription in the striatum ([1]; wt animals): No up regulation of GDNF transcription was detected | reduction in SVZ proliferation overall (PCNA) [2]: 40% | reduction in proliferation in the C cell compartment (PCNA) [2]: 50% | increase in the production of newly born Pax6+, TH+ periglomerular DA neurons in the olfactory bulb ipsilateral to the lesion [2, 10]: threefold | reduction in proliferation within the SVZ [2, 10]: 40%

N[C@@H](Cc1ccc(O)c(O)c1)C(=O)O [L-Dopa, Levodopa]
increased absolute paw angle [3]: normalized the alterations in paw angles | reduced brake time / Brake-Stride ratio ([3]; L-Dopa 20 mg/kg SC): did not correct the reduction in brake time | reduced brake time / Brake-Stride ratio ([3]; L-Dopa 20 mg/kg SC, listed as L-DOPA): not L-DOPA | increased absolute paw angle ([3]; listed as L-DOPA): normalized by L-DOPA | Brake-Stride ratios ([3]; experimental and control animals, L-Dopa 20 mg/kg SC): reduced Brake-Stride ratios in both experimental and control animals | deficits in the initiation of acceleration and deceleration (time at low speeds) [4]: partially normalized; also recorded: normalize the deficit during locomotion initiation; also recorded: ameliorated the deficits in the initiation of acceleration and deceleration; also recorded: ameliorate the deficits at low speeds | time spent locomoting at high / sub-maximal speeds [4]: Neither drug effected the time spend locomoting at sub-maximal speeds; also recorded: not those observed at higher speeds; also recorded: neither drug normalized the time; also recorded: do not normalize the differences at high locomotion speeds

CN1CC=C(c2ccccc2)CC1 [MPTP, 1-methyl-4-phenyl-1,2,3,6-tetrahydropyridine]
reduction in SVZ proliferation overall (PCNA) [2]: 40% | reduction in proliferation in the C cell compartment (PCNA) [2]: 50% | reduction in the numbers of Th+ cells compared to vehicle controls ([5]; MPTP 30 mg/kg/day for 4 days, day 33, n=5): 39%

C[C@H]1CC[C@@]2(OC1)O[C@H]1C[C@H]3[C@@H]4CC[C@@H]5C[C@@H](O)CC[C@]5(C)[C@H]4CC[C@]3(C)[C@H]1[C@@H]2C [PYM50028]
loss of dopaminergic neurons from the substantia nigra [6]: attenuated the loss of dopaminergic neurons from the substantia nigra | striatal GDNF [6]: significant elevation of striatal GDNF

Nc1nc2ccc(OC(F)(F)F)cc2s1 [Riluzole]
measures of function [7]: has not been shown to have significant effect on measures of function

CCCN(CCC)CCc1cccc2c1CC(=O)N2 [Ropinirole]
mitotic activity of the SVZ (PCNA+ cells) on the lesioned side [2, 11]: restores the mitotic activity of the SVZ | proliferative index on the unlesioned side [2, 11]: increases the proliferative index on the unlesioned side

OC(CCN1CCCCC1)(c1ccccc1)C1CCCCC1 (centres unmarked) [THP, Trihexyphenidyl]
increased absolute paw angle [3]: not by THP | reduced brake time / Brake-Stride ratio ([3]; L-Dopa 20 mg/kg SC): normalized by THP; also recorded: normalized Brake Stride ratios to control levels; also recorded: normalized Brake-Stride ratios to control levels | deficits in the initiation of acceleration and deceleration (time at low speeds) [4]: partially normalized; also recorded: normalize the deficit during locomotion initiation; also recorded: ameliorated the deficits in the initiation of acceleration and deceleration; also recorded: ameliorate the deficits at low speeds | time spent locomoting at high / sub-maximal speeds [4]: Neither drug effected the time spend locomoting at sub-maximal speeds; also recorded: not those observed at higher speeds; also recorded: neither drug normalized the time; also recorded: do not normalize the differences at high locomotion speeds

CCN(CC)CCCC(C)Nc1cc(/C=C/c2ccccc2Cl)nc2cc(Cl)ccc12 (centres unmarked) [XIB4035]
neurotrophic effects [8]: mimics the neurotrophic effects of GDNF

CC1=C2C[C@H]3[C@@H](CC=C4C[C@@H](O)CC[C@@]43C)[C@@H]2CC[C@]12O[C@@H]1C[C@H](C)CN[C@H]1[C@H]2C [cyclopamine]
up regulation of GDNF expression in the muscle ([9]; injection into calf muscles of control animals): 20 fold | effect on GDNF expression in adult muscles ([9]; injection into limb muscle of wild type (wt) and G93A SOD1 mice): up regulation of GDNF expression | up-regulation of CNTF ([9]; injection into the calf muscles of end stage G93A SOD mice): 20 fold | maximal up regulation of GDNF, fold change in gene expression over control side ([9]; right soleus of 125 day old G93A SOD transgenic animals, 1 mg of Cyclopamine, 30 h post injection): 27 fold | maximal upregulation of CNTF, fold change in gene expression over control side ([9]; right soleus of 125 day old G93A SOD transgenic animals, 2 mg of cyclopamine, 30 h post injection): 20 fold | dose dependence of neurotrophic factor up-regulation [9]: dose dependent up-regulation of neurotrophic factor expression | dose dependence of neurotrophic factor up-regulation ([9]; listed as Cyclopamine): dose dependent up-regulation of GDNF and CNTF | increase in CNTF expression over the saline injected contra lateral control soleus [9, 12]: 8 fold | increase in GDNF expression over the saline injected contra lateral control soleus [9, 12]: 12 fold | reduction in Th+ cells in the ventral midbrain compared to control animals ([5]; MPTP plus cyclopamine 50 mg/kg/day by osmotic micropump, n=1): 21% | effect on MPTP induced neurodegeneration ([5]; MPTP plus cyclopamine 50 mg/kg/day, n=1): statistically significant reduction in neurodegeneration
